Experimental data reported in US20030022158A1, “Peptides from the TT virus sequence and monospecific antibodies binding to the TT virus” (priority 1999, published 2003).

Tests used:
[1] = test system: human IgG antibodies in human serum samples; assay: EIA of human antibody reactivities to overlapping synthetic peptides of TTV ORF1 and ORF2 (Tables 2 and 3); format: binding; settings: for reactivity with serum samples from patients with TTV infection: eight samples with TTV infection; for optical density (OD) at 405 nm: serum diluted 1:100, OD over 0.500 considered positive
In short: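 Human serum diluted 1:100 was tested for IgG binding to 18-residue overlapping TTV peptides coated at 10 μg/ml (pH 9.6 carbonate, 48 h). Blocking buffer held BSA, goat serum and Tween 20. Alkaline phosphatase anti-human IgG gave a signal measured as OD at 405 nm.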

[2] = test system: human antibodies in human serum samples P4, P6, P7; assay: EIA reactivities of serial dilutions of three human serum samples with TTV peptide SEQ ID NO: 1 (Table 5); format: binding
Method: The EIAs used to identify which peptides interacted with human sera followed protocols known in the art. (See Zhang et al., J Gen Virol, 78:2735-2746 (1997), herein expressly incorporated by reference in its entirety). Briefly, microplates (Nunc, Denmark) were coated for 48 hours with synthetic peptides at a concentration of 10 μg/ml in 0.05M sodium carbonate buffer pH 9.6. […] Bound human IgG was detected by incubation with anti-human IgG antibodies conjugated to alkaline phosphatase (Sigma Chemicals, St. Louis, Mo.). The plates were developed by the addition of […] (Sigma) and the optical densities were determined at 405 nm.

[3] = test system: human antibodies in human serum samples; assay: EIA reactivities of three human serum samples with deletion and alanine substitution analogues of SEQ ID NO: 1 (Table 6); format: binding; settings: positive = more than 50% of the reactivity of the original peptide
In short: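 Plates coated 48 hours with synthetic peptides at 10 μg/ml in carbonate buffer pH 9.6, blocked, then incubated with human sera diluted 1:100. Bound human IgG detected with alkaline phosphatase anti-human IgG; OD read at 405 nm, mapping deletion and alanine-substitution analogues of SEQ ID NO: 1.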

[4] = test system: anti-TTV antibodies present in human serum; assay: Inhibition of serum reactivity to plate-bound peptide by peptide in solution; format: binding; settings: peptide SEQ ID NO: 1 on the microplate
Balb/c mice = assay: Immunization of Balb/c mice with TTV peptide 35, anti-peptide antibody titers; format: in vivo, mouse; settings: five Balb/c mice, 100 μg intra-peritoneally in complete Freund's adjuvant, booster week four
Method: A total of five Balb/c mice were immunized intra-peritoneally with 100 μg of TTV peptide 35 (SEQ ID NO: 1) emulsified 1:1 in complete Freund's adjuvant. Venous blood samples were obtained on weeks 2, 4, and 6. A booster dose of 100 μg in incomplete Freund's adjuvant was given on week four. […] The anti-peptide titers were 1:60 at week 4 and 1:2160 at week 6. […] The following section describes more on the production of antibodies specific for TTV.

Which “reactivity with serum samples from patients with TTV infection” value ([1]; EIA) does the source give for “TATTTTYAYPGTNRPPV (Peptide Immunogen) [peptide 35, overlapping synthetic peptide of TTV ORF1]” here?
Its value is “reactive to most of the TTV infected serum samples”.

And the “reactivity with serum samples from patients with TTV infection” value ([1]; EIA, listed as TATTTTYAYPGTNRPPV)?
Its value is “Every sample from patients with TTV infection was found to be reactive”.

And the “optical density (OD) at 405 nm” value ([1]; human serum sample 1, negative for TTV DNA by PCR)?
The value was 0.18 OD.

And the “optical density (OD) at 405 nm” value ([1]; human serum sample 2, negative for TTV DNA by PCR)?
The value was 0.17 OD.

And the “optical density (OD) at 405 nm” value ([1]; human serum sample 3, negative for TTV DNA by PCR)?
Its value is 0.27 OD.

What about the “optical density (OD) at 405 nm” value ([1]; human serum sample 4, negative for TTV DNA by PCR) of the same sequence?
Its value is 1.40 OD.

And the “optical density (OD) at 405 nm” value ([1]; human serum sample 5, negative for TTV DNA by PCR)?
Its value is 0.25 OD.

And the “optical density (OD) at 405 nm” value ([1]; human serum sample 6, negative for TTV DNA by PCR)?
The value was 0.64 OD.

And the “optical density (OD) at 405 nm” value ([1]; human serum sample 7, negative for TTV DNA by PCR)?
The value was 2.10 OD.

What about the “optical density (OD) at 405 nm” value ([1]; human serum sample 9, positive for TTV DNA by PCR) of the same sequence?
Its value is 0.10 OD.

And the “optical density (OD) at 405 nm” value ([1]; human serum sample 11, negative for TTV DNA by PCR)?
Its value is 0.64 OD.

What about the “optical density (OD) at 405 nm” value ([1]; human serum sample 18, positive for TTV DNA by PCR) of the same sequence?
Its value is 0.10 OD.

What about the “optical density (OD) at 405 nm” value ([1]; human serum sample 36, positive for TTV DNA by PCR) of the same sequence?
Its value is 1.22 OD.

And the “optical density (OD) at 405 nm” value ([1]; human serum sample 48, positive for TTV DNA by PCR)?
The value was 1.11 OD.

What about the “optical density (OD) at 405 nm” value ([1]; human serum sample 98, positive for TTV DNA by PCR) of the same sequence?
The value was 0.05 OD.

What about the “optical density (OD) at 405 nm” value ([1]; human serum sample 110, positive for TTV DNA by PCR) of the same sequence?
Its value is 0.47 OD.

What about the “optical density (OD) at 405 nm” value ([1]; human serum sample 155, positive for TTV DNA by PCR) of the same sequence?
Its value is 0.95 OD.

What about the “optical density (OD) at 405 nm” value ([1]; human serum sample 157, positive for TTV DNA by PCR) of the same sequence?
The value was 0.86 OD.

What about the “human reactivity to peptide (reactive peptides within ORF1)” value ([1]; tested human sera, EIA) of the same sequence?
Its value is “Reactive”.

And the “OD at 405 nm” value ([2]; human serum sample P4, dilution of serum sample 1:100)?
Its value is 1.285 OD.

And the “OD at 405 nm” value ([2]; human serum sample P4, dilution of serum sample 1:200)?
Its value is 0.758 OD.

What about the “OD at 405 nm” value ([2]; human serum sample P4, dilution of serum sample 1:400) of the same sequence?
The value was 0.411 OD.

What about the “OD at 405 nm” value ([2]; human serum sample P4, dilution of serum sample 1:800) of the same sequence?
Its value is 0.234 OD.

And the “OD at 405 nm” value ([2]; human serum sample P4, dilution of serum sample 1:1600)?
Its value is 0.131 OD.

What about the “OD at 405 nm” value ([2]; human serum sample P4, dilution of serum sample 1:3200) of the same sequence?
Its value is 0.076 OD.

And the “OD at 405 nm” value ([2]; human serum sample P4, dilution of serum sample 1:6400)?
Its value is 0.058 OD.

What about the “OD at 405 nm” value ([2]; human serum sample P4, dilution of serum sample 1:12800) of the same sequence?
Its value is 0.046 OD.

What about the “OD at 405 nm” value ([2]; human serum sample P6, dilution of serum sample 1:100) of the same sequence?
Its value is 0.687 OD.

And the “OD at 405 nm” value ([2]; human serum sample P6, dilution of serum sample 1:200)?
Its value is 0.375 OD.

And the “OD at 405 nm” value ([2]; human serum sample P6, dilution of serum sample 1:400)?
The value was 0.19 OD.

What about the “OD at 405 nm” value ([2]; human serum sample P6, dilution of serum sample 1:800) of the same sequence?
The value was 0.104 OD.

And the “OD at 405 nm” value ([2]; human serum sample P6, dilution of serum sample 1:1600)?
Its value is 0.067 OD.

What about the “OD at 405 nm” value ([2]; human serum sample P6, dilution of serum sample 1:3200) of the same sequence?
The value was 0.049 OD.

What about the “OD at 405 nm” value ([2]; human serum sample P6, dilution of serum sample 1:6400) of the same sequence?
Its value is 0.043 OD.

And the “OD at 405 nm” value ([2]; human serum sample P6, dilution of serum sample 1:12800)?
The value was 0.041 OD.

And the “OD at 405 nm” value ([2]; human serum sample P7, dilution of serum sample 1:100)?
The value was 1.782 OD.

What about the “OD at 405 nm” value ([2]; human serum sample P7, dilution of serum sample 1:200) of the same sequence?
The value was 1.23 OD.

And the “OD at 405 nm” value ([2]; human serum sample P7, dilution of serum sample 1:400)?
Its value is 0.79 OD.

And the “OD at 405 nm” value ([2]; human serum sample P7, dilution of serum sample 1:800)?
Its value is 0.45 OD.

And the “OD at 405 nm” value ([2]; human serum sample P7, dilution of serum sample 1:1600)?
The value was 0.246 OD.

And the “OD at 405 nm” value ([2]; human serum sample P7, dilution of serum sample 1:3200)?
The value was 0.131 OD.

And the “OD at 405 nm” value ([2]; human serum sample P7, dilution of serum sample 1:6400)?
The value was 0.087 OD.

What about the “OD at 405 nm” value ([2]; human serum sample P7, dilution of serum sample 1:12800) of the same sequence?
Its value is 0.061 OD.

And the “dependence of reactivity on serum dilution” value ([2]; serial dilutions of serum samples)?
The value was “dependent on the dilution of the serum samples”.

And the “OD at 405 nm, reactivity of human serum sample P4” value ([3]; human serum sample P4)?
The value was 0.748 OD.

And the “OD at 405 nm, reactivity of human serum sample P7” value ([3]; human serum sample P7)?
The value was 1.659 OD.

And the “OD at 405 nm, reactivity of human serum sample P36” value ([3]; human serum sample P36)?
The value was 0.722 OD.

And the “inhibition of serum reactivity to the peptide on the microplate by peptide in solution” value [4]?
The value was “inhibited”.

And the “mice developing detectable peptide-specific antibodies” value (Balb/c mice)?
Its value is “one developed detectable antibodies”.
